The values below come from patent publication US6531468B2, “Diazabicyclooctane derivatives and therapeutic uses thereof” (Pfizer Inc, priority 2000, dated 2003).

Where a name gives a salt, the structure may show the parent alone.

As for `Fc1ccc(N2CC3CCC2CN3)cc1` (stereo not shown) (as salt: salt), the melting point was 154 to 156 °C.

For orientation: melting point means the temperature, or range, at which the solid turns liquid.
